Measurements: ChEMBL document CHEMBL1136677, “Dermorphin tetrapeptide analogues with 2',6'-dimethylphenylalanine (Dmp) substituted for aromatic amino acids have high mu opioid receptor binding and biological activities” (Bioorg Med Chem Lett, 2003)

Tests used:
[1] = target: Delta-type opioid receptor (Rattus norvegicus, UniProt P33533); experiment: Ability to displace [3H]-deltorphin II from delta opioid receptor
[2] = target: Delta-type opioid receptor (Mus musculus) (UniProt P32300); conditions: Vas deferens
Description: Affinity towards delta opioid receptor using CTAP as antagonist in mouse vas deferens

[3] = target: Delta-type opioid receptor (Mus musculus) (UniProt P32300); conditions: Vas deferens; remark: listed apart in the source
Description: Affinity towards delta opioid receptor using N,N(Me)2Dmt-Tic-OH as antagonist in mouse vas deferens

[4] = target: Mu-type opioid receptor (Cavia porcellus) (UniProt P97266); experiment: Affinity towards mu opioid receptor using CTAP as antagonist in guinea pig ileum; format: functional, tissue-based
Mu-type opioid receptor [5] = target: Mu-type opioid receptor (Rattus norvegicus, UniProt P33535); experiment: Ability to displace [3H]DAMGO from mu opioid receptor
[6] = target: Delta-type opioid receptor (Mus musculus, UniProt P32300); experiment: Ability to inhibit electrically induced contractions of mouse vas deferens having delta opioid receptors tested in vitro; format: tissue-based
[7] = target: Delta-type opioid receptor (Mus musculus) (UniProt P32300); experiment: Selectivity ratio of IC50(MVD) to IC50(GPI) was determined
[8] = target: Delta-type opioid receptor (Rattus norvegicus) (UniProt P33533); experiment: (§1) Selectivity ratio of binding affinity of delta opioid receptor to mu opioid receptor
Mu-type opioid receptor [9] = target: Mu-type opioid receptor (Cavia porcellus, UniProt P97266); experiment: Ability to inhibit electrically induced contractions of guinea pig ileum having mu opioid receptors tested in vitro; format: tissue-based
Mus musculus [10] = experiment: Antinociceptive activity in mice after subcutaneous injection in the second phase of formalin test; format: functional; conditions: sc
Mus musculus [11] = experiment: Antinociceptive activity in mice after subcutaneous injection in the first phase of formalin test; format: functional; conditions: sc
[12] = target: Prothrombin (Homo sapiens) (UniProt P00734); experiment: as §1

Delta-type opioid receptor (Rattus norvegicus), sequence (P33533 whole entry): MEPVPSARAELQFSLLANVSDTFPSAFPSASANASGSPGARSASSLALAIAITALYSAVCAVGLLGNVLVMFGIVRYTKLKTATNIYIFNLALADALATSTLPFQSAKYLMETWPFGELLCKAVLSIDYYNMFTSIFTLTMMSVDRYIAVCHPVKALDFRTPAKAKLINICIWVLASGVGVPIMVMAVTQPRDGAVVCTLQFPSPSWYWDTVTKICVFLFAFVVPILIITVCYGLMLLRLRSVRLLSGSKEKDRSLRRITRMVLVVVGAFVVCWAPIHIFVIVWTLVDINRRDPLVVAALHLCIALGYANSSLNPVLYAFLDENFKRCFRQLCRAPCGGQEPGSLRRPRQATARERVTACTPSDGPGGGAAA
Delta-type opioid receptor (Rattus norvegicus, UniProt P33533), sequence (P33533 whole entry): as above
Mu-type opioid receptor (Rattus norvegicus, UniProt P33535), sequence (P33535 whole entry): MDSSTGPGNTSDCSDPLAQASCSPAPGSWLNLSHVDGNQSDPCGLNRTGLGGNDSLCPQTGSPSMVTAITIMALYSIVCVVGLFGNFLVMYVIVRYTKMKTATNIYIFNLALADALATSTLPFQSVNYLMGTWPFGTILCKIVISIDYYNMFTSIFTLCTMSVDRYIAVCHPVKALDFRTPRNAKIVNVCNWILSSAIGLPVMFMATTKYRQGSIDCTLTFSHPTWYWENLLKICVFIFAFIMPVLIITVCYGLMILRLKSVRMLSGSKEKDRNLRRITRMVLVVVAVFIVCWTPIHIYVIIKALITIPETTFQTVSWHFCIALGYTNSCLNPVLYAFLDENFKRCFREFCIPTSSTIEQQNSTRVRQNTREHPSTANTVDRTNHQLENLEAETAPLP
Delta-type opioid receptor (Mus musculus, UniProt P32300), sequence (P32300 whole entry): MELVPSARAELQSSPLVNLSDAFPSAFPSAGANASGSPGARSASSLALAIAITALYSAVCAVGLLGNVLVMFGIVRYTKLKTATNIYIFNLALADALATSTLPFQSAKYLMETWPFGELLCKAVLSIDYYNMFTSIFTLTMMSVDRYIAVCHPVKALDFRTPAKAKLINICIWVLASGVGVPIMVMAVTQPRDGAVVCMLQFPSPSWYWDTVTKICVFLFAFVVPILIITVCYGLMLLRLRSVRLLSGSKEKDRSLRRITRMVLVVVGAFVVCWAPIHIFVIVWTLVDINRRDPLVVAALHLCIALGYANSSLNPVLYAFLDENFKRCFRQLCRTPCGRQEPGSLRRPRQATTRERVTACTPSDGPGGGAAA
Delta-type opioid receptor (Mus musculus), sequence (P32300 whole entry): as above
Mu-type opioid receptor (Cavia porcellus), sequence (P97266 whole entry): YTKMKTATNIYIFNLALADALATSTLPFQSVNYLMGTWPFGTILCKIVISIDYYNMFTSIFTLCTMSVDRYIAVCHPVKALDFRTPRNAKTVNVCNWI
Mu-type opioid receptor (Cavia porcellus, UniProt P97266), sequence (P97266 whole entry): as above

SMILES | Ki [1] [nM] | Ke [2] [nM] | Ke [3] [nM] | Ke [4] [nM] | Ki (Mu-type opioid receptor [5]) [nM] | IC50 [6] [nM] | Ratio [7] | Ratio [8] | IC50 (Mu-type opioid receptor [9]) [nM] | ED50 (Mus musculus [10]) [µmol/kg] | ED50 (Mus musculus [11]) [µmol/kg] | Ratio [12]
Cc1cccc(C)c1C[C@H](NC(=O)[C@@H](CCCN=C(N)N)NC(=O)[C@@H](N)Cc1c(C)cccc1C)C(=O)NCCC(N)=O | 1690 | 10.2 | > 1000 | 21.3 | 0.0216 | 50.1 | 18.2 | 78100 | 2.76 | – | – | –
Cc1cc(O)cc(C)c1C[C@H](N)C(=O)N[C@H](CCCN=C(N)N)C(=O)N[C@@H](Cc1ccccc1)C(=O)NCCC(N)=O | 1.13 | – | – | – | 0.00205 | 0.398 | 11.7 | 551 | 0.034 | – | – | –
Cc1cccc(C)c1C[C@@H](N)C(=O)N[C@H](CCCN=C(N)N)C(=O)N[C@@H](Cc1ccccc1)C(=O)NCCC(N)=O | – | – | – | – | – | – | 4.6 | > 370 | – | – | – | –
Cc1cccc(C)c1C[C@H](N)C(=O)N[C@H](CCCN=C(N)N)C(=O)N[C@@H](Cc1ccccc1)C(=O)NCCC(N)=O | 2570 | 13.4 | > 1000 | 25.1 | 0.0623 | 188 | 19 | 41300 | 9.88 | 1.53 | 1.95 | –
Cc1cccc(C)c1C[C@@H](NC(=O)[C@@H](CCCN=C(N)N)NC(=O)[C@@H](N)Cc1ccc(O)cc1)C(=O)NCCC(N)=O | > 2820 | – | – | – | 0.0618 | 305 | 15.4 | > 45700 | 19.8 | – | – | –
NC(=O)CCNC(=O)[C@H](Cc1ccccc1)NC(=O)[C@@H](CCCN=C(N)N)NC(=O)[C@@H](N)Cc1ccc(O)cc1 | – | 21.2 | > 1000 | 26.8 | – | – | 21.8 | 2800 | – | 0.514 | 0.628 | –
Cc1cccc(C)c1C[C@H](NC(=O)[C@@H](CCCN=C(N)N)NC(=O)[C@@H](N)Cc1ccc(O)cc1)C(=O)NCCC(N)=O | 544 | 11.4 | > 1000 | 22.7 | 0.035 | 27.9 | 16.7 | – | 1.67 | 0.113 | 0.0986 | 15500
N=C(N)NCCC[C@@H](NC(=O)[C@@H](N)Cc1ccc(O)cc1)C(=O)N[C@@H](Cc1ccccc1)C(=O)NCCC(N)=O | 482 | – | – | – | 0.172 | 116 | – | – | 5.31 | – | – | –
CN1CC[C@]23c4c5ccc(O)c4O[C@H]2[C@@H](O)C=C[C@H]3[C@H]1C5 [MORPHINE] | – | – | – | – | – | – | – | – | – | 7.32 | 3.81 | –
Cc1cccc(C)c1C[C@@H](N)C(=O)N[C@H](CCCNC(=N)N)C(=O)N[C@@H](Cc1ccccc1)C(=O)NCCC(N)=O | > 2820 | – | – | – | 7.62 | 1470 | – | – | 320 | – | – | –
CC(C)[C@H](NC(=O)[C@H](CCC(=O)O)NC(=O)[C@H](Cc1ccccc1)NC(=O)[C@H](C)NC(=O)[C@@H](N)Cc1ccc(O)cc1)C(=O)N[C@H](C(=O)NCC(=O)O)C(C)C | – | > 1000 | 0.64 | – | – | – | – | – | – | – | – | –
NC(=O)CCNC(=O)[C@H](Cc1ccccc1)NC(=O)[C@@H](CCCN=C(N)N)NC(=O)[C@@H](N)Cc1ccccc1 | > 2820 | – | – | – | 7.17 | 7140 | 11.2 | > 393 | 633 | – | – | –
